Measurements as given in patent US8114619B2, “Methods for diagnosis and optimizing treatment of multiple sclerosis” (The Johns Hopkins University, priority 2006, dated 2012).
“Also recorded” adds a separate entry of the source. Non-standard residues stand in square brackets, D forms with d. Residues, ends and D or L forms follow the SMILES beside them. *: point of attachment. Sta = CC(C)C[C@H](N)[C@@H](O)CC(=O)O; Isovaleryl = CC(C)CC(=O)*; 4Abz = Nc1ccc(C(=O)O)cc1; NHOH = ON*

Assays:
[1] = system: rat mixed hippocampal cultures; assay: neuroprotection against HIV-1 Tat toxicity; type: cell-based; conditions: for protection from HIV-1 Tat toxicity: 1 hour preincubation
Source text: (§1) We sought to evaluate the protective efficacy of a number of modified terpenoid compounds against the against many different neurotoxins, ranging from the chemotoxic 6-OHDA, NMDA, 3-nitropropionic acid (3-NP), and viral proteins such as Tat and gp120. Thus, we established an in vitro neuroprotection assay using rat mixed hippocampal cultures, in which we evaluated the protective efficacy of neuroprotective compounds disclosed herein. The oxidative stressor 3-NP was used to elicit toxicity in the rat hippocampal cultures to mimic the oxidative damage, reactive oxygen species production and ensuing neurodegeneration resulting from HIV infection. Another measure of neurotoxicity which results from HIV infection was evaluated by exposure of the hippocampal cultures to HIV-1 Tat (Li et al (2005), Neurotox Res, 8(1-2):119-134).
(§2) Rat mixed hippocamal neuronal cultures were generated from freshly dissected rat hippocampi (embryonic day 18) in neurobasal media containing 5% fetal bovine serum and 2% B27 supplement. The cells were plated into 96 well plates at a density of 4×10^5 cells/mL and routinely used on days 11-14 following culturing. Cell viability was assessed with MTT [3-(4,5-dimethylthiazol-2-yl)-2,5-diphenyltetrazolium bromide] assay. The MTT assay is based on the ability of a mitochondrial dehydrogenase enzyme from viable cells to cleave the tetrazolium rings of the pale yellow MTT and form dark blue formazan crystals. See Mosmann (1983), J Immunol Methods, 65(1-2):55-63. These crystals are largely impermeable to cell membranes, and thus accumulate within healthy cells. The resultant formazan precipitates are solubilized with DMSO and read on a multiwell scanning spectrophotometer (ELISA reader). The number of surviving cells is directly proportional to the level of the formazan product created.
(§3) Cultures were preincubated with GPI 1046 or Resveratrol for one hour prior to an 18 hour exposure to 3 mM 3-NP. […] The same neuroprotective compounds were evaluated for efficacy against HIV-1 Tat protein toxicity using the same 1 hour preincubation protocol.

[2] = system: rat mixed hippocampal cultures; assay: in vitro neuroprotection assay against 3-NP, MTT viability; conditions: for protection from oxidative damage elicited by 3-NP: preincubated one hour prior to 18 hour exposure to 3 mM 3-NP
Source text: 5, 2007. In Tables 5 and 6 “% Protection vs 3-NP” refers to the increase in cultured neuron viability in the presence of the oxidative stressor 3-nitropropionic acid. For details of the assay, see Example 3 below.
as §1, §2
Mixed hippocampal cultures were incubated with 3-NP (0.5-10 mM) for 18 hours and then assessed for viability using an MTT assay.
as §3

cystatin C = assay: effect of protease inhibitors on cystatin C cleavage in CSF; type: biochemical, human; conditions: control CSF with only full length cystatin C, room temperature 48 hours; FN-439 and pepstatin A 500 ug/ml
Method: We incubated control CSF which contained only the full length cystatin C at room temperature for 48 hours in the presence of various protease inhibitors and monitored it for the presence of the 12.5 kD fragment.

cathepsin B = molecular target: T1, cathepsin B (Homo sapiens, UniProt P07858); assay: cathepsin B functional assay; type: biochemical; conditions: for inhibition of cathepsin B activity: untreated recombinant protein, or protease alone; for ability to inhibit cathepsin B after treatment of cystatin C with MMP-2: recombinant cystatin C treated with MMP-2; for cathepsin B activity after treatment of cystatin C with cathepsin D: recombinant cystatin C treated with cathepsin D
T1 construct: Cell lysates were prepared using a lysis buffer provided with the assay kit; host or cells: THP-1 cell lysate
Method: The activity of cathepsin B, a substrate of cystatin C, was measured using an activity assay kit (Biovision Research Products, Mountain View, Calif.). This fluorescence-based assay utilizes the cathepsin-B substrate sequence Arg-Arg labeled with amino-4-trifluoromethyl coumarin […]. Cathepsin-B cleaves the synthetic substrate RR-AFC to release free AFC. THP-1 cells (a monocytic cell line) were used as a source of cathepsin B. Cell lysates were prepared using a lysis buffer provided with the assay kit. Cell lysates from 1×10^6 cells were added to 50 μl of CSF in a microtiter plate (q.s. 100 μl). Two μl of substrate Ac-Arg-Arg-AFC was added to each well and incubated for 1 hr at 37° C. Absorbance was measured using a fluorescent plate reader with a 400 nm excitation filter and 505 nm emission filter. Controls included reaction buffer alone and a cathepsin B inhibitor provided in the kit. All samples were analyzed in duplicate.
Recombinant cystatin C was produced and the ability of MMP-2 and cathepsin D to cleave the recombinant protein was confirmed. As expected, cathepsin D cleaved cystatin C at four different sites, and yielded a 12.5 kD fragment following cleavage from the C terminal region (9). In contrast, MMP-2 cleaved cystatin C at three unique sites (GK, FC, and GT which correspond to amino acids 4,5; 96,97 and 108,109). Recombinant cystatin C was treated with either MMP-2 or cathepsin D and its activity monitored by a cathepsin B functional assay using a kit from Biovision Research Products, Mountain View, Calif. The assay was performed as previously described (4). […] Cathepsin D and MMP-2 alone had no effect on cathepsin B activity (FIG. 9). These observations confirmed that C terminal fragmentation of cystatin C leads to a gain in activity while cleavage in other regions including the N terminal region leads to a loss or decrease of activity of cystatin C.

[3] = system: human fetal neuronal cultures; assay: protection of human fetal neurons against 6-OHDA; type: cell-based
Source text: (§4) Finally, we sought to determine if the compounds tested in rat neuronal cultures would also be effective on cultured human fetal neurons.

rat neuronal cultures [4] = assay: protection against 6-OHDA neurotoxicity; type: cell-based
Source text: as §1
(§5) Rat mixed hippocamal neuronal cultures were generated from freshly dissected rat hippocampi (embryonic day 18) in neurobasal media containing 5% fetal bovine serum and 2% B27 supplement. The cells were plated into 96 well plates at a density of 4×10^5 cells/mL and routinely used on days 11-14 following culturing. Cell viability was assessed with MTT [3-(4,5-dimethylthiazol-2-yl)-2,5-diphenyltetrazolium bromide] assay. […] The resultant formazan precipitates are solubilized with DMSO and read on a multiwell scanning spectrophotometer (ELISA reader). […]

[5] = system: human fetal neuronal cultures; assay: protection of human fetal neurons against 3-NP; type: cell-based
Source text: as §4

rat neuronal cultures [6] = assay: protection against NMDA excitotoxicity; type: cell-based
Source text: as §1, §5

[7] = listed as Recombinant cystatin C

CCC(C)(C)C(=O)C(=O)N1CCC[C@H]1C(=O)OCCCc1cccnc1 [GPI 1046, reference compound]
protection from HIV-1 Tat toxicity [1]: protected hippocampal neurons from Tat toxicity
protection from oxidative damage elicited by 3-NP [2]: significantly protected

O=C(O)CC[N+](=O)[O-] [Compound 3-NP, 3-nitropropionic acid]
cytotoxicity ([2]; 3 mM 3-NP, 18 hours, MTT assay): 25-35%

Oc1ccc(C=Cc2cc(O)cc(O)c2)cc1 [RESVERATROL, reference compound]
protection from HIV-1 Tat toxicity [1]: protected hippocampal neurons from Tat toxicity
protection from oxidative damage elicited by 3-NP [2]: significantly protected

CC(C)C[C@@H](NC(=O)[C@@H]1CCCN1C(=O)CNC(=O)c1ccc(N)cc1)C(=O)N[C@H](C)C(=O)NO [FN-439] (H-[4Abz]GP[dL][dA]-{NHOH})
effect on cleavage of cystatin C (12.5 kD fragment) (cystatin C): showed inhibition of the breakdown of cystatin C

CC(C)CC(=O)N[C@H](C(=O)N[C@H](C(=O)N[C@@H](CC(C)C)[C@@H](O)CC(=O)N[C@@H](C)C(=O)N[C@@H](CC(C)C)[C@@H](O)CC(=O)O)C(C)C)C(C)C [pepstatin A] (Isovaleryl-VV[Sta]A[Sta]-OH)
effect on cleavage of cystatin C (12.5 kD fragment) (cystatin C): showed inhibition of the breakdown of cystatin C; also recorded: significantly prevented cleavage of cystatin C

CC(=O)O[C@@H]1CC2C(C)(C)C(=O)C=C[C@]2(C)C2CC[C@]3(C)[C@@H](c4ccoc4)OC(=O)[C@H]4O[C@]43[C@@]21C (stereo partly drawn) [GEDUNIN]
neuroprotection from HIV-1 Tat toxicity at 1-10 μM ([1]; 1-10 μM): nearly complete neuroprotection
protection from HIV-1 Tat toxicity [1]: dose dependently protected

C[C@@H]1[C@H](O)[C@@H](C)/C=C/C=C/CC/C=C/C=C/C=C/C=C/C(O[C@H]2O[C@H](C)[C@@H](O)[C@H](N)[C@@H]2O)CC2O[C@](O)(CC(O)C(O)CCC(O)CC(O)CC(O)CC(=O)O[C@H]1C)CC(O)C2C(=O)O (stereo partly drawn) [NYSTATIN]
% Protection vs 3NP ([2]; increase in cultured neuron viability in the presence of 3-nitropropionic acid (Table 6)): 46.72%

Cathepsin D: protease that cleaves cystatin C from the C terminal region
inhibition of cathepsin B activity (cathepsin B): no effect

CC1(C)O[C@H]2CC(=O)OC[C@]23[C@H]2CC[C@@]4(C)[C@H](c5ccoc5)OC(=O)[C@H]5O[C@]54[C@]2(C)C(=O)C[C@@H]13 [Limonin]
protection from HIV-1 Tat toxicity [1]: dose dependently protected
protection against 6-OHDA [3]: dose-dependently protected
protection against 6-OHDA at highest dose (rat neuronal cultures [4]; 10 μM, highest dose tested): complete protection
block of 6-OHDA neurotoxicity (rat neuronal cultures [4]; dose-dependent): dose-dependently blocked
protection against 3-NP [5]: dose-dependently protected
protection against NMDA at highest dose (rat neuronal cultures [6]; 10 μM, highest dose tested): complete protection
block of NMDA neurotoxicity (rat neuronal cultures [6]; dose-dependent): dose-dependently blocked

B1: MMP-2: matrix metalloprotease that cleaved cystatin C at three sites (protein)
chain: YNFFPRKPKWDKNQITYRIIGYTPDLDPETVDDAFARAFQVWSDVTPLRFSRIHDGEADIMINFGRWEHGDGYPFDGKDGLLAHAFAPGTGVGGDSHFDDDELWTLGEGQVVRVKYGNADGEYCKFPFLFNGKEYNSCTDTGRSDGFLWCSTTYNFEKDGKYGFCPHEALFTMGGNAEGQPCKFPFRFQGTSYDSCTTEGRTDGYRWCGTTEDYDRDKKYGFCPETAMSTVGGNSEGAPCVFPFTFLGNKYESCTSAGRSDGKMWCATTANYDDDRKWGFCPDQGYSLFLVAAHEFGHAMGLEHSQDPGALMAPIYTYTKNFRLSQDDIKGIQELYGASPDIDLGTGPTPTLGPVTPEICKQDIVFDGIAQIRGEIFFFKDRFIWRTVTPRDKPMGPLLVATFWPELPEKIDAVYEAPQEEKAVFFAGNEYWIYSASTLERGYPKPLTSLGLPPDVQRVDAAFNWSKNKKTYIFAGDKFWRYNEVKKKMDPGFPKLIADAWNAIPDNLDAVVDLQGGGHSYFFKGAYYLKLENQSLKSVKFGSIKSDWLGC
inhibition of cathepsin B activity (cathepsin B): no effect

B2: full length cystatin C: recombinant cystatin C, inhibitor of cysteine proteases including cathepsin B (protein)
chain: SSPGKPPRLVGGPMDASVEEEGVRRALDFAVGEYNKASNDMYHSRALQVVRARKQIVAGVNYFLDVELGRTTCTKTQPNLDNCPFHDQPHLKRKAFCSFQIYAVPWQGTMTLSKSTCQDA
ability to inhibit cathepsin B after treatment of cystatin C with MMP-2 (cathepsin B; [7]): inhibition of CysC activity
ability to inhibit cathepsin B after treatment of cystatin C with MMP-2 (cathepsin B; listed as cystatin C): decrease in its ability to inhibit cathepsin B activity
cathepsin B activity after treatment of cystatin C with cathepsin D (cathepsin B; [7]): further enhanced
cathepsin B activity after treatment of cystatin C with cathepsin D (cathepsin B; listed as cystatin C): further decrease in cathepsin B activity
inhibition of cathepsin B activity (cathepsin B): significant inhibition
